Experimental data as given in patent US20090029366A1 (priority 2007, published 2009).

Target: T1, human HCN1 (Homo sapiens, UniProt O60741)
T1 construct: expressed in transfected cells; host or cells: HEK-293H
T1 sequence (O60741 1-890): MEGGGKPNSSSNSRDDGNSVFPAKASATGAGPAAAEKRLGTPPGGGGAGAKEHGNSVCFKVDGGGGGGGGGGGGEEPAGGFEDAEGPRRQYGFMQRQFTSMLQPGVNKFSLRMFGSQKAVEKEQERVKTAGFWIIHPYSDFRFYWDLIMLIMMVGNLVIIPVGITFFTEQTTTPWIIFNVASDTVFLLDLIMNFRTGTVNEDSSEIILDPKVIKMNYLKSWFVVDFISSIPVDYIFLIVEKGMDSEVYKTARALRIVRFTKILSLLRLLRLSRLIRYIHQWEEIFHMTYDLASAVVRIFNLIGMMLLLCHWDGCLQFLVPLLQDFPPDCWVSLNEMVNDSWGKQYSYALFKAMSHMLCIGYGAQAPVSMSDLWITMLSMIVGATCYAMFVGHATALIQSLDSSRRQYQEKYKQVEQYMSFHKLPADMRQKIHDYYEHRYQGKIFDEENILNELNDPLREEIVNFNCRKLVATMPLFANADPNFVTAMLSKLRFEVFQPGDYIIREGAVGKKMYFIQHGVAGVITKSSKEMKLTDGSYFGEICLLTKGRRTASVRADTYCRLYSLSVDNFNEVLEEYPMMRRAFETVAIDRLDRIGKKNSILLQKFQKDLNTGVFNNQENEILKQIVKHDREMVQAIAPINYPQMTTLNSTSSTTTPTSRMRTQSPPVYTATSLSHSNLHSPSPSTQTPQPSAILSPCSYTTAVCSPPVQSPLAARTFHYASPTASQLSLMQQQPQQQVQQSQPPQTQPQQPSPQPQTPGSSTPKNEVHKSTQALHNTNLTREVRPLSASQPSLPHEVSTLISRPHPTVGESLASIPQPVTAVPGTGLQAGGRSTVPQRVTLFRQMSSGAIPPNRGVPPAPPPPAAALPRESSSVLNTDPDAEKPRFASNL
Test: MPSD FLIPR 384 well hyperpolarization assay, HCN1
Type: cell-based
Protocol: HEK-293H cells stably expressing human HCN1, HCN2, or HCN3 channel were plated at a density of 45-50×10^3 cells/well in a 384 well format fluorescent imaging plate reader system (FLIPR®^384) in 50 μl/well of DMEM supplemented with 10% fetal bovine serum and penicillin/streptomycin. The cells were cultured for 24-48 hours in a 5% CO2/air humidified incubator at 37° C.
The cells seeded on the microtiter plates were incubated in 50 μl HBSS, as described in Example 2. Optionally, HBSS was supplemented with about 25 mM of KCl to further enhance the assay window. A membrane potential sensitive dye (MPSD), Component-A of the Membrane Potential Assay Kit, (Product No. R-8034, Molecular Devices Corporation of Sunnyvale, Calif.) was dissolved in the HBSS solution (1 vial/0.5 L). The excess saline was removed to fit the residual volume of about 1 μl to 5 μl. […]
Membrane potentials were measured at room temperature (21°-23°) for each of the above-described saline conditions using a fluorescent imaging plate reader system (FLIPR®, Molecular Devices of Sunnyvale, Calif.). […]
HEK-293H cells stably expressing human HCN1 channel were plated as described in Example 3 above. […] The change in fluorescence (ΔF) was measured for a total assay time of about 180 seconds. […]

CCN(c1ccccc1)c1cc(=NC)n(C)c(C)n1.Cl [ZD7288]
blockade of hyperpolarization (change in fluorescence) (30 μM ZD7288, HEK-293H HCN1, about 180 seconds): effectively blocked hyperpolarization | blockade of hyperpolarization (change in fluorescence), FIG. 5 legend (50 μM ZD7288, cells expressing HCN1): effectively blocked hyperpolarization
